In patent publication US20090124572A1, “Iron-containing nutritional supplement” (priority 2007, published 2009):

Legend:
[1] = dissolved in water; cited from earlier work
[2] = system: Caco-2 cells; assay: In-solution treatment of Caco-2 cells, ferritin formation as index of iron uptake/bioavailability (Experiments 1 and 2); conditions: Experiment 1, 6-well plates, iron 20 μmol/L, AA 400 μmol/L, 20 hours
Procedure: Cell culture. Caco-2 cells were obtained from the American Type Culture Collection at passage 17 and used in experiments at passage 29-35. Cells were seeded at a density of 50,000 cells/cm^2 in collagen-treated 6-well or 24-well plates. The integrity of the monolayer was verified by optical microscopy. […] The cells were maintained in Dulbecco's Modified Eagle Medium (DMEM) plus 1% antibiotic/antimycotic solution, 25 mmol/L HEPES and 10% fetal bovine serum; the medium was changed every 2 days. Two days before the experiment, the growth medium was removed from each culture well, and the cell layer was washed and maintained with Minimum Essential Media (MEM) at pH 7.0. […] This enriched MEM contained less than 80 μg iron/L. Iron uptake experiments were conducted 13 days post-seeding.
Harvesting of Caco-2 cells for ferritin analysis. […] Ferritin concentration and total protein concentration were determined on an aliquot of the harvested cell suspension with a one-stage sandwich immunoradiometric assay and a colorimetric assay, respectively. […] Therefore, the ratio of ferritin/total protein expressed as ng ferritin/mg protein, was used as an index of the cellular iron uptake.
In-solution treatment. […] Cellular ferritin and total protein was then analyzed and compared among all treatments. […]

| Compound | pH of aqueous solution [1] | ferritin formation in Caco-2 cells in the presence of ascorbic acid [2] |
| --- | --- | --- |
| ferrous sulfate | about 2 |  |
| [Cl][Fe]([Cl])[Cl] [FeCl3, ferric chloride] |  | significantly lower |
